The values below come from patent publication US5795897A, “Oxohexyl methylxanthine compounds” (Cell Therapeutics, Inc., priority 1994, dated 1998).

Data set [1] deals with L929 murine fibroblast cells. The data set can be described thus: L929 TNF cytotoxicity assay (protection, fluorescent viability dye). The following applies: TNF-α 500 pg/ml, 40 hrs at 37° C; 2 hrs preincubation; FIG. 1. The class given is cell-based. As to the method: The cells plus (or minus) drug plus TNF were incubated for 40 hrs at 37° C.
Data set [2] concerns U937 cells to TNF activated human umbilical vein endothelial cells (HUVEC). Kind of data set: Adhesion of U937 cells to TNF-activated HUVEC. Type of data set: cell-based. Particulars: FIG. 2. The method, then:
This example illustrates the effects of CT1505 to inhibit adhesion of U937 cells to TNF-activated HUVEC cells In this experiment, HUVEC cells were induced with human TNF-α(20ng/ml) and incubated with drug (CT1505) at varying concentrations for 14-16 hrs. U937 cells (a human monocyte cell line) were incubated and labeled with BCECF (10 μg/ml), a fluorescent dye. The U937 cell preparation (2.5×10^4 cells per well) was layered on top of the activated HUVEC cells. The cells were reverse spun to remove partially adhering and nonadhering U937 cell. The adherent U937 cells were measured by fluorescence on a fluorescent plate reader.

Data set [3] has as its system LD-2 cells, a human malignant melanoma cell line. The data set can be described thus: Cytotoxicity on LD-2 cells. Type of data set: cell-based. Particulars: various concentrations, FIG. 3. The method, then:
The cells were treated with various concentrations of CT1505 and later stained for cell viability with a fluorescence stain.
(§1) 1-(5-oxohexyl)-3-methylxanthine was investigated for cytotoxicity to determine appropriate doses for biological activity assays and to prevent cytotoxic reactions in in vitro assays when characterizing activity. Cells (e.g., NIH-3T3, Ras transformed 3T3 cells, malignant melanoma LD2 cells, etc.) are added to microtiter plates and drug is added about two days after plating. Cell viability is determined using a fluorescent viability stain (2', 7'-bis-(2-carboroxyethyl)-5-(and -6)-carboxyfluorescein acetoxymethyl ester, BCECF excitation 488 nm and emission 525 nm) 24,48 or 72 hours after addition of the drug.
This example illustrates that CT1505 has cytotoxic activity for the LD-2 tumor cell line. Cytotoxicity of LD-2 cells was determined with concentrations of CT1505 up to 1.0 mM (see FIG. 3).

The subject of another data set is NIH-3T3 cells. Kind of data set: Cytotoxicity on NIH-3T3 cells. Type of data set: cell-based. Particulars: various concentrations, FIG. 4. The method, then: (§2) The cells were treated with various concentrations of CT1505 (in the mM range on a log scale) and later stained for cell viability with a fluorescence stain.
as §1
(§3) This example illustrates that CT1505 has cytotoxic activity for NIH-3T3 and NIH-Ras transformed tumor cells. Cytotoxicity of the cells was determined with concentrations of CT1505 up to 1.0 mM (see FIG. 4).

The next data set deals with NIH-3T3 Ras cells. The data set can be described thus: Cytotoxicity on Ras transformed NIH-3T3 cells. The class given is cell-based. The following applies: various concentrations, FIG. 4. As to the method:
as §2, §1, §3

Data set [4] relates to PBMC (peripheral blood mononuclear cells). Kind of data set: Mixed lymphocyte reaction. The class given is cell-based, human. Particulars: CT1505 versus PTX, FIG. 5. From the text:
Various in vitro assays can be used to measure effects of 1-(5-oxohexyl)-3methylxanthine to module immune activity and have antitumor activity using a variety of cellular types. For example, a mixed lymphocyte reaction (MLR) provides a valuable screening tool to determine biological activity of 1-(5-oxohexyl)-3-methylxanthine. In the MLR, PBMCs (peripheral blood mononuclear cells) are obtained by drawing whole blood from healthy volunteers in a heparinized container and diluted with an equal volume of hanks balanced salt solution (HBSS). This mixture is layered on a sucrose density gradient, such as a Ficoll-Hypaque® gradient (specific gravity 1.08), and centrifuged at 1000×g for 25 minutes at room temperature or cooler. PBMC are obtained from a band at a plasma-Ficoll interface, separated and washed at least twice in a saline solution, such as HBSS. Contaminating red cells are lysed, such as by ACK lysis for 10 min at 37° C., and the PBMCs are washed twice in HBSS. The pellet of purified PBMCs is resuspended in complete medium, such as RPMI 1640 plus 20% human inactivated serum. Proliferative response of PBMC to allogeneic stimulation is determined in a two-way MLR performed in a 96-well microtiter plate. […] At the conclusion of the incubation tritiated thymidine is added (for example, 1 μCi/well of 40 to 60 Ci/mmole) and proliferation determined by liquid scintillation counting. […]

Data set [5] concerns synaptosomes stimulated with acetylcholine and/or epinephrine (PA and DAG). Kind of data set: PA and DAG levels in stimulated synaptosomes. The class given is biochemical. As to the method: (§4) One in vitro assay measures inhibition of the relevant enzymes lysophosphatidic acid acyltransferase (LPAAT) and phosphatidic acid phosphoryl hydrolase (PAPH). The assay involves incubating of target cells with a primary stimulus (e.g., a variety of cytokines, growth factors, oncogene products, putative therapeutic agents, irradiation, viral infection, toxins, bacterial infection and the products thereof, and any stimulus which, if not counteracted, has a deleterious effect on the target cell) in the presence or absence of 1-(5-oxohexyl)-3-methylxanthineat varying dosage levels. Target cells include, for example, subcellular entities, such as, microsomes derived from mesenchymal and/or ectodermal cells, particularly microsomes from marrow stromal cells or human or rat mesangial cells; microsomes or synaptosomes derived from bovine brain; plasma membrane-enriched microsomes or plasma membranes derived as described in Bursten et al. (J. Biol. Chem. […]:20732-20743, 1991) detergent-solubilized microsomes; synaptosomes, and membranes or other cell preparations solubilized using, for example, NP-40,Miranal, SDS or other neutral detergents; and detergent-solubilized or further purified preparations of cell proteins, including the proteins LPAAT and/or PAPH. […] Thus, the relevant unsaturated (non-arachidonic) PA and DAG subspecies may be detected. […]

The next data set deals with PA and DAG. The data set can be described thus: Elevation of PA and DAG upon primary stimulus. Type of data set: cell-based. Particulars: e.g. interleukin-1 or TNF. As to the method: as §4
The test system of data set [6] is polymorphonuclear leukocytes. The following applies: in response to a stimulator of chemotaxis; U.S. Pat. No. 4,636,507; cited from earlier work.
For data set [7] the following is noted: U.S. Pat. Nos 4,515,795 and 4,576,947; cited from earlier work.
In the next data set the test system is TNF. Particulars: normal volunteers; cited from earlier work.
The subject of the next data set is certain cytokines. Particulars: U.S. Pat. Nos. 4,965,271 and 5,096,906; cited from earlier work.

The structures appear in SMILES notation. “Also recorded” adds a separate entry of the source.

Turning to `CC(=O)CCCCn1c(=O)c2[nH]cnc2n(C)c1=O` [CT1505, 1-(5-oxohexyl)-3-methylxanthine], in data set [1], the “protection of fibroblast cells from TNF cytotoxicity” value was “protected the fibroblast cells from TNF cytotoxicity better than PTX and much better than the control cells”. Further, in [2] (TNF-activated HUVEC), the “concentration range of adhesion inhibitory activity” value is listed as “tenths of mM”. Further, in data set [2] (TNF-α 20 ng/ml, 14-16 hrs), the “inhibition of adhesion of U937 cells to activated HUVEC” value is on record as “inhibits adhesion of U937 cells to TNF activated human umbilical vein endothelial cells; also recorded: inhibited the inflammatory response of the activated HUVEC cells to adhere U937 monocytes in a dose response fashion”. Moreover, the cytotoxicity entry (in data set [3]; in the data set on NIH-3T3 cells; with NIH-3T3 Ras cells) was “cytotoxic at higher concentrations” throughout. Moreover, the immune modulating activity result in [4] is reported as “more potent immune modulating activity with CT1505 than with PTX; also recorded: more potent drug for cause immune modulating activity than was PTX”. Further, the “effect on enhanced PA and DAG levels” value in data set [5] was “able to decrease enhanced levels of a relevant PA and DAG”. Further, in the data set on PA and DAG, the “effect on elevation of PA and DAG levels” value is reported as “reverses this elevation”.
Take `CC(O)CCCCn1c(=O)c2c(ncn2C)n(C)c1=O` (centres unmarked) [M1, 1-(5-hydroxyhexyl)-3,7-dimethylxanthine]: the “chemotaxis in polymorphonuclear leukocytes” value in [6] was “stimulate chemotaxis”. Further, the cerebral blood flow entry in data set [7] is reported as “increasing cerebral blood flow”.
As for `CC(=O)CCCCn1c(=O)c2c(ncn2C)n(C)c1=O` [PTX, 1-(5-oxohexyl)-3,7-dimethylxanthine], the “chemotaxis in polymorphonuclear leukocytes” value in data set [6] is given as “stimulate chemotaxis”. Moreover, the TNF levels result in the data set with TNF is recorded as “TNF levels were higher among PTX recipients”. The “activity of certain cytokines to affect chemotaxis” value in the data set on certain cytokines was “inhibit activity of certain cytokines”.
